Among the test systems are 786-0; CAKI-1; HCC 2998; HT-29; IGROV-1; K562; M14; MCF7; MOLT-4; NCI-H460; OVCAR-3; OVCAR-5; SF-268; SF-539; SNB-19; T47D; UACC-62; UO-31; HOP-92; SNB-75.
Common to all, as to experiment: growth of human tumour cells (NCI), 48 h

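Protocol summary: plate cells (96-well), add compound at 5 concentrations, incubate 48 h, interpolate endpoints linearly. At the GI50, growth is halved.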 Calls of active or inactive are those of the source. Rule as the data show it: active = GI50 up to about 1.1 µM and inactive = higher.

Regarding `CCCc1cc(COC)c(C#N)c(O)n1`, the GI50 in the test on 786-0, in the test on CAKI-1, with HCC 2998, with HT-29, with IGROV-1 and in the test with K562 was > 100 µM (inactive) in each case. Moreover, the GI50 in the test with M14, in the test with MCF7, in the test with MOLT-4, in the test with NCI-H460, in the test on OVCAR-3 and in the test on OVCAR-5 was > 100 µM (inactive) throughout. Also, the GI50 in the test with SF-268 was > 100 µM (inactive); in the test on SF-539, 65 µM (inactive); in the test on SNB-19, > 100 µM (inactive); in the test with T47D, > 100 µM (inactive); in the test on UACC-62, > 100 µM (inactive); in the test with UO-31, > 100 µM (inactive).

Turning to `Oc1ccc(-c2ccccc2)nn1`, the GI50 in the test with 786-0, in the test with CAKI-1, in the test on HCC 2998, in the test with HOP-92, in the test on HT-29 and in the test on IGROV-1 was > 100 µM (inactive) each time. Besides, the GI50 with K562, with M14, in the test on MOLT-4, with NCI-H460, with OVCAR-3 and in the test with OVCAR-5 was > 100 µM (inactive) in each case. Besides, the GI50 with SF-268, in the test with SNB-19, in the test with T47D, in the test with UACC-62 and in the test on UO-31 was > 100 µM (inactive) in each case.

Turning to `COc1ccc(CCCNC(=O)Cc2cc(OC)c(OC)cc2CO)cc1OC`, the GI50 in the test with 786-0, in the test with CAKI-1, in the test with HCC 2998, in the test with HOP-92, with HT-29 and in the test on IGROV-1 was > 100 µM (inactive) throughout. For the same compound, the GI50 in the test with K562, with M14, in the test with MOLT-4, with NCI-H460, with OVCAR-3 and in the test on OVCAR-5 was > 100 µM (inactive) in each case. Further, the GI50 is > 100 µM (inactive) with SNB-19; > 100 µM (inactive) with SNB-75; 23.3 µM (inactive) in the test with T47D; > 100 µM (inactive) in the test on UACC-62; > 100 µM (inactive) with UO-31.

As for `CCOC(=O)C1=C(C(=O)c2ccc(C)cc2)C(c2cccc([N+](=O)[O-])c2)C(C(=O)c2ccc(C)cc2)=C(C(=O)OCC)N1`, the GI50 in the test on 786-0 is 16.2 µM (inactive); in the test with CAKI-1, 19.5 µM (inactive); with HT-29, 13 µM (inactive); in the test on IGROV-1 it was 16.2 µM (inactive); with K562, 7.24 µM (inactive); with M14, 18.1 µM (inactive). The GI50 with MCF7 is 16 µM (inactive); in the test on MOLT-4, 28.6 µM (inactive); with NCI-H460, 31.6 µM (inactive); with OVCAR-3 it was 15.5 µM (inactive); in the test with OVCAR-5, 17.2 µM (inactive); in the test on SF-268 it was 17.7 µM (inactive). Besides, the GI50 in the test on SF-539 was 12.8 µM (inactive); with SNB-19, 6.08 µM (inactive); in the test with SNB-75, 40.9 µM (inactive); in the test on T47D it was 2.41 µM (inactive); with UACC-62, 18.2 µM (inactive); with UO-31 it was 11.4 µM (inactive).

Turning to `Cc1csc2nc3c(cnn3C)c(=S)n12`, the GI50 with 786-0 was > 100 µM (inactive); in the test on CAKI-1 it was 34.3 µM (inactive); with HCC 2998, > 100 µM (inactive); in the test on HT-29, 84.5 µM (inactive); with IGROV-1, > 100 µM (inactive); with K562, > 100 µM (inactive). The GI50 in the test on M14, with MCF7, with MOLT-4, with NCI-H460, with OVCAR-3 and in the test with OVCAR-5 was > 100 µM (inactive) in each case. In addition, the GI50 is > 100 µM (inactive) in the test on SF-268; > 100 µM (inactive) in the test on SF-539; > 100 µM (inactive) with SNB-19; 28.1 µM (inactive) with SNB-75; > 10 µM (inactive) in the test with T47D; > 100 µM (inactive) in the test on UACC-62. In addition, in the test on UO-31, the GI50 was 33.5 µM (inactive).

As to `COc1ccc(-c2nc(-c3cnccn3)n(C3OC(CO)C(O)C3O)n2)cc1` (stereo unspecified), the GI50 in the test on 786-0, with HCC 2998, in the test with HOP-92, with HT-29, in the test with K562 and in the test on M14 was > 10 µM (inactive) each time. Also, the GI50 in the test with MCF7, in the test with MOLT-4, in the test with NCI-H460, with OVCAR-3, with OVCAR-5 and in the test with SF-268 was > 10 µM (inactive) throughout. The GI50 with SF-539, in the test on SNB-19, in the test on SNB-75, in the test on UACC-62 and with UO-31 was > 10 µM (inactive) each time.

As for `Nc1nc(N)c2nc(CNc3ccc(C(=O)NC(CCC(=O)O)C(=O)O)cc3F)cnc2n1` (stereo unspecified), the GI50 in the test on 786-0, with CAKI-1, in the test with HT-29, in the test on IGROV-1, in the test on K562 and in the test on M14 was < 0.01 µM (active) throughout. The GI50 with MCF7 was < 0.01 µM (active); in the test with MOLT-4 it was < 0.01 µM (active); with NCI-H460 it was < 0.01 µM (active); in the test with OVCAR-3 it was 45.1 µM (inactive); with OVCAR-5, > 100 µM (inactive); in the test with SF-268, < 0.01 µM (active). The GI50 in the test on SF-539 is < 0.01 µM (active); with SNB-19, < 0.01 µM (active); in the test on SNB-75, 16.1 µM (inactive); in the test on T47D, < 0.01 µM (active); in the test with UACC-62 it was < 0.01 µM (active); with UO-31, < 0.01 µM (active).

For `CCOC(=O)N1CC2(C)C=CC1C(C(=O)OC)C2` (stereo unspecified), the GI50 in the test with 786-0, in the test on CAKI-1, in the test on HCC 2998, in the test with HT-29, with IGROV-1 and in the test with K562 was > 100 µM (inactive) in each case. For the same compound, the GI50 with M14, with MCF7, with MOLT-4, in the test with NCI-H460, in the test on OVCAR-3 and in the test on OVCAR-5 was > 100 µM (inactive) throughout. In addition, the GI50 in the test with SF-268, with SNB-19, with SNB-75, in the test on T47D, with UACC-62 and in the test on UO-31 was > 100 µM (inactive) each time.

`CN1CN(c2ccccc2)C2(CCN(CCc3csc4ccccc34)CC2)C1=O`: the GI50 is 14.5 µM (inactive) in the test with 786-0; 11.2 µM (inactive) in the test with CAKI-1; 7.21 µM (inactive) with HCC 2998; 4.04 µM (inactive) with HT-29; 21.7 µM (inactive) in the test with IGROV-1; 14.8 µM (inactive) in the test on K562. For the same compound, the GI50 with M14 is 16.7 µM (inactive); with MCF7, 13.3 µM (inactive); in the test on MOLT-4, 10.3 µM (inactive); in the test with OVCAR-3, 12.1 µM (inactive); in the test with OVCAR-5 it was 11.9 µM (inactive); in the test on SF-268, 28.8 µM (inactive). Moreover, the GI50 was 11 µM (inactive) with SF-539; 20.2 µM (inactive) in the test on SNB-19; 17.3 µM (inactive) with SNB-75; 18.3 µM (inactive) in the test with T47D; 19.9 µM (inactive) in the test with UACC-62; 1.8 µM (inactive) in the test on UO-31.

In the case of `O=c1c2ccccc2c2c1c1c3ccccc3c(=O)c1c1c3ccccc3c(=O)c21`, the GI50 in the test on 786-0, in the test on CAKI-1, in the test on HCC 2998, in the test with HT-29, in the test on IGROV-1 and with K562 was > 100 µM (inactive) each time. For the same compound, the GI50 with M14, with MCF7, with MOLT-4, in the test with NCI-H460, in the test on OVCAR-3 and with OVCAR-5 was > 100 µM (inactive) throughout. Besides, the GI50 with SF-268, in the test with SF-539, in the test with SNB-19, in the test with SNB-75, with T47D and with UACC-62 was > 100 µM (inactive) throughout. Also, the GI50 with UO-31 was > 100 µM (inactive).

As to `CCOP(=O)(OCC)/C(=C/n1c(=S)[nH]c2ccccc21)C(=O)OC`, the GI50 is > 100 µM (inactive) in the test on 786-0; > 100 µM (inactive) with CAKI-1; 51.9 µM (inactive) in the test with HCC 2998; > 100 µM (inactive) in the test with HT-29; > 100 µM (inactive) in the test with IGROV-1; > 100 µM (inactive) in the test on K562. In addition, the GI50 in the test with M14 was > 100 µM (inactive); in the test on MCF7, > 100 µM (inactive); in the test on MOLT-4 it was > 100 µM (inactive); with NCI-H460 it was 10 µM (inactive); in the test on OVCAR-3 it was 0.0311 µM (active); in the test on OVCAR-5, > 100 µM (inactive). Further, the GI50 in the test with SF-268 was > 100 µM (inactive); in the test with SF-539 it was > 100 µM (inactive); in the test with SNB-75 it was 34.4 µM (inactive); in the test with T47D, > 100 µM (inactive); with UACC-62, > 100 µM (inactive).

The values above are taken from ChEMBL document CHEMBL1201862, “PubChem BioAssay data set” (2004).
